Results: patent US11427541B2, “Salt forms of a complement component C5A receptor” (CHEMOCENTRYX, INC., priority 2019, dated 2022)
Structures can show the parent of a compound that is named as a salt.

Assays:
[1] = in vivo rat PK study, aqueous liquid suspension with 0.5% w/v Hydroxypropyl Cellulose and 0.5% w/v Poloxamer F-68 (Example 8); details: oral 10 mg/kg of Compound 1, 5 mL/kg
Experimental: (§1) An in vivo rat PK study was conducted to compare the PK profile and bioavailability of the free base crystalline form of Compound 1 against various salt forms of Compound 1 in an aqueous liquid suspension formulation, which contained 0.5% w/v Hydroxypropyl Cellulose (Klucel GF grade) and 0.5% w/v Poloxamer F-68 (BASF Kolliphor P188). Each animal was orally administrated 10 mg/kg of Compound 1 at 5 mL/kg dosing volume (a dosing concentration of 2 mg/mL).

[2] = in vivo rat PK study, aqueous liquid suspension with 1% HPMC (Example 9); details: oral 10 mg/kg of Compound 1, 5 mL/kg, suspension in 1% HPMC
Experimental: as §1, with “1% HPMC.” for “0.5% w/v Hydroxypropyl Cellulose (Klucel GF grade) and 0.5% w/v Poloxamer F-68 (BASF Kolliphor P188).”

[3] = hygroscopicity and physical stability by dynamic vapor sorption (DVS); format: physicochemical; details: for DVS weight change from 5% to 95% relative humidity (RH): 5% to 95% RH; for DVS weight change from about 0% RH to about 75% relative humidity: about 0% to about 75% RH; for change in XRPD before and after the DVS measurement: data not shown; for DVS weight change from about 0% RH to about 55% relative humidity: about 0% to about 55% RH
Experimental: To evaluate the hygroscopicity and physical stability of the collected crystals under different humidity, dynamic vapor sorption (DVS) data was collected at 25° C. after the sample was pre-equilibrated at 0% RH to remove unbounded water. DVS was measured using a VTI SGA-100 Vapor Sorption Analyzer. Sorption and desorption data was collected over a range from 5% to 95% RH at 10% RH increments under a nitrogen purge. The equilibrium criterion used for analysis was less than 0.0100% weight change in 5 minutes with a maximum equilibrium time of 3 hours. [table]

[4] = stability of the crystals on storage and heating (HPLC, LCMS, NMR, XRPD); format: physicochemical; details: for decomposition on storage (HPLC, LCMS and NMR analysis): 40° C. and 75% relative humidity for 45 days; for physical form by XRPD before and after the stability tests: both samples of the stability tests
Experimental: The stability of the collected crystals were tested by storing the crystals at 40° C. and 75% relative humidity for 45 days.

[5] = as above; format: physicochemical
[6] = in vivo, po, 10 mg/kg, suspension in 0.5% HPC / 0.5% Poloxamer F-68
[7] = in vivo, po, 10 mg/kg, suspension in 0.5% HPC / 0.5% Poloxamer F-68, read-out: AUC0-t
[8] = in vivo, po, 10 mg/kg, suspension in 0.5% HPC / 0.5% Poloxamer F-68, read-out: Cmax
[9] = in vivo, po, 10 mg/kg, read-out: AUC0-t
[10] = in vivo, po, 10 mg/kg, read-out: Cmax
[11] = 55° C. in a vacuum oven for 24 h
[12] = 75° C. for 1 week (open to air)
[13] = suspension in 0.5% HPC / 0.5% Poloxamer F-68
[14] = listed as Crystalline Edisylate
[15] = listed as Crystalline Napadisylate
[16] = 25° C., listed as Napadisylate Salt of Compound 1 (Form I)
[17] = listed as Crystalline Camsylate
[18] = listed as Crystalline Napsylate
[19] = 25° C., listed as Napsylate Salt of Compound 1 (Form I)

| SMILES | change in XRPD before and after the DVS measurement [3] | decomposition on storage (HPLC, LCMS and NMR analysis) [4] | physical form by XRPD before and after the stability tests [4] | decomposition on heating (HPLC, LCMS and NMR analysis) [5, 11] | decomposition on heating (HPLC, LCMS and NMR analysis) [5, 12] | AUC0-t [1, 13] [ng·h/mL] | AUCinf [1, 13] [ng·h/mL] | Cmax [1, 13] [ng/mL] | other results |
| --- | --- | --- | --- | --- | --- | --- | --- | --- | --- |
| Cc1ccc(NC(=O)[C@H]2CCCN(C(=O)c3c(C)cccc3F)[C@H]2c2ccc(NC3CCCC3)cc2)cc1C(F)(F)F.Cc1ccc(S(=O)(=O)O)cc1 [Tosylate Salt (Form I), N-cyclopentyl-4-((2R,3S)-1-(2-fluoro-6-methylbenzoyl)-3-((4-methyl-3-(trifluoromethyl)phenyl)-carbamoyl)piperidin-2-yl)benzenaminium 4-methylbenzenesulfonate] | No change in XRPD | did not result in any appreciable decomposition | remained the same | did not result in any appreciable decomposition | did not result in any appreciable decomposition |  |  |  | AUC(0-inf) [1, 6]: 4150 ng·h/mL; AUC0-t [1, 7]: 4040 ng·h/mL; Cmax [1, 8]: 591 ng/mL; AUC(0-inf) ([2]; in vivo, po, 10 mg/kg): 3370 ng·h/mL; AUC0-t [2, 9]: 3310 ng·h/mL; Cmax [2, 10]: 649 ng/mL; DVS weight change from 5% to 95% relative humidity (RH) ([3]; 25° C.): 0.83%; DVS weight change from about 0% RH to about 75% relative humidity ([3]; 25° C.): about 0.58% |
| Cc1ccc(NC(=O)[C@H]2CCCN(C(=O)c3c(C)cccc3F)[C@H]2c2ccc(NC3CCCC3)cc2)cc1C(F)(F)F.O=S(=O)(O)c1ccccc1 [Besylate Salt (Form I), N-cyclopentyl-4-((2R,3S)-1-(2-fluoro-6-methylbenzoyl)-3-((4-methyl-3-(trifluoromethyl)phenyl)-carbamoyl)piperidin-2-yl)benzenaminium benzenesulfonate] | No change in XRPD | did not result in any appreciable decomposition | remained the same | did not result in any appreciable decomposition | did not result in any appreciable decomposition |  |  |  | AUC(0-inf) [1, 6]: 2600 ng·h/mL; AUC0-t [1, 7]: 2510 ng·h/mL; Cmax [1, 8]: 493 ng/mL; AUC(0-inf) ([2]; in vivo, po, 10 mg/kg): 2220 ng·h/mL; AUC0-t [2, 9]: 2170 ng·h/mL; Cmax [2, 10]: 390 ng/mL; DVS weight change from 5% to 95% relative humidity (RH) ([3]; 25° C.): 0.73%; DVS weight change from about 0% RH to about 75% relative humidity ([3]; 25° C.): about 0.5% |
| Cc1ccc(NC(=O)[C@H]2CCCN(C(=O)c3c(C)cccc3F)[C@H]2c2ccc(NC3CCCC3)cc2)cc1C(F)(F)F [Edisylate Salt (Form I), N-cyclopentyl-4-((2R,3S)-1-(2-fluoro-6-methylbenzoyl)-3-((4-methyl-3-(trifluoromethyl)phenyl)carbamoyl)piperidin-2-yl)benzenaminium ethane-1,2-disulfonate] |  |  |  |  |  | 2839 | 3197 | 435 | AUC0-t [2, 14]: 2126 ng·h/mL; AUCinf [2, 14]: 2162 ng·h/mL; Cmax [2, 14]: 525 ng/mL |
| Cc1ccc(NC(=O)[C@H]2CCCN(C(=O)c3c(C)cccc3F)[C@H]2c2ccc(NC3CCCC3)cc2)cc1C(F)(F)F [Crystalline Free Base, (2R,3S)-2-(4-(cyclopentylamino)phenyl)-1-(2-fluoro-6-methylbenzoyl)-N-(4-methyl-3-(trifluoromethyl)phenyl)piperidine-3-carboxamide] |  |  |  |  |  |  |  |  | AUC0-t [2]: 1361 ng·h/mL; AUCinf [2]: 1377 ng·h/mL; Cmax [2]: 168 ng/mL |
| Cc1ccc(NC(=O)[C@H]2CCCN(C(=O)c3c(C)cccc3F)[C@H]2c2ccc(NC3CCCC3)cc2)cc1C(F)(F)F [Napadisylate Salt (Form I), N-cyclopentyl-4-((2R,3S)-1-(2-fluoro-6-methylbenzoyl)-3-((4-methyl-3-(trifluoromethyl)phenyl)-carbamoyl)piperidin-2-yl)benzenaminium naphthalene-1,5-disulfonate] | No change in XRPD | did not result in any appreciable decomposition | remained the same | did not result in any appreciable decomposition | did not result in any appreciable decomposition | 3417 | 3478 | 718 | AUC0-t [2, 15]: 5856 ng·h/mL; AUCinf [2, 15]: 7743 ng·h/mL; Cmax [2, 15]: 753 ng/mL; DVS weight change from 5% to 95% relative humidity (RH) [3, 16]: 1.42%; DVS weight change from about 0% RH to about 55% relative humidity [3, 16]: about 0.6% |
| Cc1ccc(NC(=O)[C@H]2CCCN(C(=O)c3c(C)cccc3F)[C@H]2c2ccc(NC3CCCC3)cc2)cc1C(F)(F)F [Camsylate Salt (Form I), N-cyclopentyl-4-((2R,3S)-1-(2-fluoro-6-methylbenzoyl)-3-((4-methyl-3-(trifluoromethyl)phenyl)-carbamoyl)piperidin-2-yl)benzenaminium (1S)-(+)-10-camphorsulfonate] | No change in XRPD | did not result in any appreciable decomposition | remained the same | did not result in any appreciable decomposition | did not result in any appreciable decomposition | 3870 | 3922 | 738 | AUC0-t [2, 17]: 2877 ng·h/mL; AUCinf [2, 17]: 3005 ng·h/mL; Cmax [2, 17]: 553 ng/mL; DVS weight change from 5% to 95% relative humidity (RH) ([3]; 25° C., listed as Camsylate Salt of Compound 1 (Form I)): 0.96%; DVS weight change from about 0% RH to about 65% relative humidity ([3]; 25° C., about 0% to about 65% RH): about 0.35% |
| Cc1ccc(NC(=O)[C@H]2CCCN(C(=O)c3c(C)cccc3F)[C@H]2c2ccc(NC3CCCC3)cc2)cc1C(F)(F)F [Napsylate Salt (Form I), N-cyclopentyl-4-((2R,3S)-1-(2-fluoro-6-methylbenzoyl)-3-((4-methyl-3-(trifluoromethyl)phenyl)-carbamoyl)piperidin-2-yl)benzenaminium naphthalene-2-sulfonate] | No change in XRPD | did not result in any appreciable decomposition | remained the same | did not result in any appreciable decomposition | did not result in any appreciable decomposition | 4876 | 5057 | 778 | AUC0-t [2, 18]: 4277 ng·h/mL; AUCinf [2, 18]: 4589 ng·h/mL; Cmax [2, 18]: 601 ng/mL; DVS weight change from 5% to 95% relative humidity (RH) [3, 19]: 0.65%; DVS weight change from about 0% RH to about 55% relative humidity [3, 19]: about 0.2% |
